Experimental data published in patent US11896579B2, “Combination drug” (Chugai Seiyaku Kabushiki Kaisha, priority 2015, dated 2024).

Test system: human non-small cell lung cancer cell line NCI-H2228 which is positive for the ALK fusion gene
Experiment: NCI-H2228 xenograft tumor volume in SCID mice
Format: in vivo
Settings: SCID mice with NCI-H2228 transplant; agent alone: bevacizumab 5 mg/kg i.p. once a week; cisplatin 5 mg/kg i.v. once a week; paclitaxel 12.5 mg/kg i.v. once a week; gemcitabine 60 mg/kg i.p. twice a week
Experimental: In the FIGURE, the horizontal axis represents the number of days elapsed after the transplantation of the cells, and the vertical axis represents the tumor volume and the body weight change rate. Control represents control groups to which a solvent is administered and combo represents combined use groups.

Compound	change in tumor volume during administration alone
N.N.[Cl][Pt][Cl] [cisplatin]	No significant change in tumor volume
Nc1ccn([C@@H]2O[C@H](CO)[C@@H](O)C2(F)F)c(=O)n1 [gemcitabine]	No significant change in tumor volume
CC(=O)O[C@H]1C(=O)[C@@]2(C)[C@H]([C@H](OC(=O)c3ccccc3)[C@]3(O)C[C@H](OC(=O)[C@H](O)[C@@H](NC(=O)c4ccccc4)c4ccccc4)C(C)=C1C3(C)C)[C@]1(OC(C)=O)CO[C@@H]1C[C@@H]2O [paclitaxel]	No significant change in tumor volume
bevacizumab: anti-human VEGF antibody	increases in tumor volume were observed
